Laboratory results published in patent publication US20100010078A1, “METHODS OF TREATING ANDROGEN DEPENDENT PROSTATE CANCER BY ADMINISTERING AN ACTIVE PHARMACEUTICAL INGREDIENT BEING FISETIN, 3,3',4',7-TETRAHYDROXYFLAVONE OR A DERIVATIVE THEREOF, IN AN ORAL, TRANSDERMAL OR TOPICAL DOSAGE FORM” (priority 2008, published 2010).
Peptide text beside a SMILES is read from it. * marks the point of attachment. Cbz = O=C(OCc1ccccc1)*; CH2F = FC*

Columns and labels:
caspase-3 and -7 = assay: Immunofluorescence staining for active caspase-3 and -7; assay type: cell-based, human; details: LNCaP, Z-VAD-FMK 40 μM for 2 h before fisetin 40 μM
Experimental: Immunofluorescence staining for active caspase-3 and -7. LNCaP cells were incubated with 40 μM concentration of the general caspase inhibitor Z-VAD-FMK for 2 h, followed by the addition of fisetin (40 μM; 48 h) and then harvested. ICT's Magic Red™ substrate-based MR-Caspase assay kit was used for the immunofluorescence staining for caspase-3 and -7. This kit utilizes the fluorophore, cresyl violet. As the 4 amino acid sequence, aspartylglutamylalanylaspartic acid (DEVD) is the optimal sequence for caspase -3 as well as -7, it was coupled to cresyl violet to create the caspase 3/7 substrate, MR-(DEVD)2. […] Following enzymatic hydrolysis at one or both of the aspartic acid amide linkage sites, the mono and non-substituted cresyl violet fluorophores fluoresce red and fluorescence photographs were obtained at 510-560 nm excitation and 610 nm emission.

caspase-3, -8 and -9 = assay: Western blot, active caspase-3, -8 and -9 in LNCaP cells; assay type: cell-based, human; details: Z-VAD-FMK 40 μM for 2 h before fisetin (10-60 μM), compared to fisetin treatment
Experimental: Protein extraction and western blotting. Following the treatment of LNCaP cells with fisetin (10-60 μM; 48 h), the media was aspirated, the cells were washed with cold PBS (pH 7.4), and ice-cold lysis buffer (50 mM Tris-HCl, 150 mM NaCl, 1 mM EGTA, 1 mM EDTA, 20 mM NaF, 100 mM Na3VO4, 0.5% NP-40, 1% Triton X-100, 1 mM PMSF (pH 7.4)) with freshly added protease inhibitor cocktail (Protease Inhibitor Cocktail Set III, Calbiochem, La Jolla, Calif.) over ice for 30 min. The cells were scraped and the lysate was collected in a microfuge tube and passed through a needle to break up the cell aggregates. […]
For western blotting, 30-50 μg protein was resolved over 8-12% polyacrylamide gels and transferred to a nitrocellulose membrane. The blot was blocked in blocking buffer (5% nonfat dry milk/1% Tween 20; in 20 mM TBS, pH 7.6) for 1 hr at room temperature, incubated with appropriate monoclonal or polyclonal primary antibody in blocking buffer for 1.5 h to overnight at 4° C., followed by incubation with anti-mouse or anti-rabbit secondary antibody horseradish peroxidase conjugate obtained from Amersham Life Science Inc. and detected by chemiluminescence and autoradiography using XAR-5 film obtained from Eastman Kodak Co. (Rochester, N.Y., USA). […]

With `COC(=O)C[C@H](NC(=O)[C@H](C)NC(=O)[C@@H](NC(=O)OCc1ccccc1)C(C)C)C(=O)CF` [Z-VAD-FMK, reference compound] (Cbz-Val-Ala-Asp(OMe)-CH2F) the “immunofluorescence staining of active caspase-3 & -7” value (caspase-3 and -7) was “significant decrease” and the “protein expression of active caspase-3, -8 and -9” value (caspase-3, -8 and -9) was “significant decrease”.
